Literature values as cited in patent US6319912A, “Cyclic regimens using 2,1-benzisothiazoline 2,2-dioxides” (American Home Products Corporation, priority 2000, dated 2001).

Test system: hormone dependent prostate cancer
Details: literature, Michna et al 1995

SMILES | effectiveness in a model of hormone dependent prostate cancer
CN(C)c1ccc([C@H]2C[C@]3(C)[C@@H](CC[C@]3(O)CCCO)[C@@H]3CCC4=CC(=O)CCC4=C32)cc1 [onapristone] | effective
CC#C[C@]1(O)CC[C@H]2[C@@H]3CCC4=CC(=O)CCC4=C3[C@@H](c3ccc(N(C)C)cc3)C[C@@]21C [mifepristone] | effective
